Assay results from ChEMBL document CHEMBL1153037, “Synthesis and structure-activity relationship studies of cytotoxic anhydrovinblastine amide derivatives” (J Nat Prod, 2009).
Counter-ions that a name gives are not always drawn.

Legend:
HeLa = experiment: Cytotoxicity against human HeLa cells by sulforhodamine B assay; assay type: functional, cell-based
A549 = experiment: Cytotoxicity against human A549 cells by sulforhodamine B assay; assay type: functional, cell-based
CCRF S-180 [1] = experiment: Antitumor activity against mouse S180 cells xenografted in Kunming mouse at 10 mg/kg, iv administered on day 1 and 4; assay type: functional; details: for inhibition in vivo at 10 mg/kg: Mus musculus
CCRF S-180 [2] = experiment: Antitumor activity against mouse S180 cells xenografted in Kunming mouse at 20 mg/kg, iv administered as single dose on day 1; assay type: functional; details: CCRF S-180, 24 h
CCRF S-180 [3] = experiment: Toxicity against mouse S180 cells xenografted in Kunming mouse at 10 mg/kg, iv administered on day 1 and 4; assay type: functional, organism-based; set-up: dose 10 mg/kg

| SMILES | IC50 (HeLa) [nM] | IC50 (A549; Homo sapiens, A549) [nM] | also measured |
| --- | --- | --- | --- |
| CCC1=C[C@@H]2CN(CCc3c([nH]c4ccccc34)[C@@](C(=O)OC)(c3cc4c(cc3OC)N(C)[C@H]3[C@@](O)(CNC(=O)Cc5ccccc5)[C@H](OC(C)=O)[C@]5(CC)C=CCN6CC[C@]43[C@@H]65)C2)C1 | 78 | 39 |  |
| CCC1=C[C@@H]2CN(CCc3c([nH]c4ccccc34)[C@@](C(=O)OC)(c3cc4c(cc3OC)N(C)[C@H]3[C@@](O)(CNC(=O)c5ccc6c(c5)OCO6)[C@H](OC(C)=O)[C@]5(CC)C=CCN6CC[C@]43[C@@H]65)C2)C1 | 33 | 8 | inhibition in vivo at 10 mg/kg (CCRF S-180 [1]; CCRF S-180, 24 h): 58.1%; inhibition in vivo at 20 mg/kg (CCRF S-180 [2]): 66.3%; Activity (CCRF S-180 [3]): Not toxic |
| CCC1=C[C@@H]2CN(CCc3c([nH]c4ccccc34)[C@@](C(=O)OC)(c3cc4c(cc3OC)N(C)[C@H]3[C@@](O)(CNC(=O)c5ccccc5OC)[C@H](OC(C)=O)[C@]5(CC)C=CCN6CC[C@]43[C@@H]65)C2)C1 | 21 | 10 |  |
| CCC(=O)NC[C@@]1(O)[C@H](OC(C)=O)[C@]2(CC)C=CCN3CC[C@@]4(c5cc([C@@]6(C(=O)OC)C[C@@H]7C=C(CC)CN(CCc8c6[nH]c6ccccc86)C7)c(OC)cc5N(C)[C@@H]14)[C@@H]32 | 57 | 43 | inhibition in vivo at 10 mg/kg (CCRF S-180 [1]; CCRF S-180, 24 h): 84.4%; inhibition in vivo at 20 mg/kg (CCRF S-180 [2]): 90%; Activity (CCRF S-180 [3]): Not toxic |
| CCC1=C[C@@H]2CN(C1)Cc1c([nH]c3ccccc13)[C@@](C(=O)OC)(c1cc3c(cc1OC)N(C)[C@H]1[C@@](O)(C(=O)OC)[C@H](OC(C)=O)[C@]4(CC)C=CCN5CC[C@]31[C@@H]54)C2 [VINORELBINE] |  |  | inhibition (INH) (CCRF S-180 [1]): 69.4%; IC50 (A549; a549): 30 nM |
| CCC1=C[C@@H]2CN(CCc3c([nH]c4ccccc34)[C@@](C(=O)OC)(c3cc4c(cc3OC)N(C)[C@H]3[C@@](O)(CNC(=O)c5ccc(Cl)cc5)[C@H](OC(C)=O)[C@]5(CC)C=CCN6CC[C@]43[C@@H]65)C2)C1 | 47 | 25 |  |
| CCCC(=O)NC[C@@]1(O)[C@H](OC(C)=O)[C@]2(CC)C=CCN3CC[C@@]4(c5cc([C@@]6(C(=O)OC)C[C@@H]7C=C(CC)CN(CCc8c6[nH]c6ccccc86)C7)c(OC)cc5N(C)[C@@H]14)[C@@H]32 | 97 | 96 |  |
| CCC1=C[C@@H]2CN(CCc3c([nH]c4ccccc34)[C@@](C(=O)OC)(c3cc4c(cc3OC)N(C)[C@H]3[C@@](O)(CNC(=O)C5CC5)[C@H](OC(C)=O)[C@]5(CC)C=CCN6CC[C@]43[C@@H]65)C2)C1 | 35 | 26 | inhibition in vivo at 10 mg/kg (CCRF S-180 [1]; CCRF S-180, 24 h): 81.3%; inhibition in vivo at 20 mg/kg (CCRF S-180 [2]): 88.8% |
| CCC1=C[C@@H]2CN(CCc3c([nH]c4ccccc34)[C@@](C(=O)OC)(c3cc4c(cc3OC)N(C)[C@H]3[C@@](O)(CNC(=O)CC(C)C)[C@H](OC(C)=O)[C@]5(CC)C=CCN6CC[C@]43[C@@H]65)C2)C1 | 85 | 152 |  |
| CCC1=C[C@@H]2CN(CCc3c([nH]c4ccccc34)[C@@](C(=O)OC)(c3cc4c(cc3OC)N(C)[C@H]3[C@@](O)(CNC(=O)c5cccc(Cl)c5)[C@H](OC(C)=O)[C@]5(CC)C=CCN6CC[C@]43[C@@H]65)C2)C1 | 67 | 26 |  |
| CCC1=C[C@@H]2CN(C1)Cc1c([nH]c3ccccc13)[C@@](C(=O)OC)(c1cc3c(cc1OC)N(C)[C@H]1[C@@](O)(C(=O)OC)[C@H](OC(C)=O)[C@]4(CC)C=CCN5CC[C@]31[C@@H]54)C2 [VINORELBINE TARTRATE] |  |  | inhibition in vivo at 10 mg/kg (CCRF S-180 [1]; CCRF S-180, iv, 24 h): 62.5% |
| CCC1=C[C@@H]2CN(C1)Cc1c([nH]c3ccccc13)[C@@](C(=O)OC)(c1cc3c(cc1OC)N(C)[C@H]1[C@@](O)(C(=O)OC)[C@H](OC(C)=O)[C@]4(CC)C=CCN5CC[C@]31[C@@H]54)C2 |  |  | Activity (CCRF S-180 [3]): Not toxic |
| CCC1=C[C@@H]2CN(CCc3c([nH]c4ccccc34)[C@@](C(=O)OC)(c3cc4c(cc3OC)N(C)[C@H]3[C@@](O)(CNC(=O)c5ccccc5Cl)[C@H](OC(C)=O)[C@]5(CC)C=CCN6CC[C@]43[C@@H]65)C2)C1 | 89 | 24 |  |
| CCC1=C[C@@H]2CN(CCc3c([nH]c4ccccc34)[C@@](C(=O)OC)(c3cc4c(cc3OC)N(C)[C@H]3[C@@](O)(CNC(=O)C(C)C)[C@H](OC(C)=O)[C@]5(CC)C=CCN6CC[C@]43[C@@H]65)C2)C1 | 132 | 101 |  |
| CCC1=C[C@@H]2CN(CCc3c([nH]c4ccccc34)[C@@](C(=O)OC)(c3cc4c(cc3OC)N(C)[C@H]3[C@@](O)(CNC(=O)c5ccccc5)[C@H](OC(C)=O)[C@]5(CC)C=CCN6CC[C@]43[C@@H]65)C2)C1 | 26 | 27 |  |
| CCC1=C[C@@H]2CN(CCc3c([nH]c4ccccc34)[C@@](C(=O)OC)(c3cc4c(cc3OC)N(C)[C@H]3[C@@](O)(CNC(=O)CC(C)(C)C)[C@H](OC(C)=O)[C@]5(CC)C=CCN6CC[C@]43[C@@H]65)C2)C1 | 93 | 115 |  |
| CCC1=C[C@@H]2CN(CCc3c([nH]c4ccccc34)[C@@](C(=O)OC)(c3cc4c(cc3OC)N(C)[C@H]3[C@@](O)(CNC(=O)c5ccc([N+](=O)[O-])cc5)[C@H](OC(C)=O)[C@]5(CC)C=CCN6CC[C@]43[C@@H]65)C2)C1 | 23 | 33 |  |
| CCC1=C[C@@H]2CN(CCc3c([nH]c4ccccc34)[C@@](C(=O)OC)(c3cc4c(cc3OC)N(C)[C@H]3[C@@](O)(CNC(=O)c5ccc(OC)cc5)[C@H](OC(C)=O)[C@]5(CC)C=CCN6CC[C@]43[C@@H]65)C2)C1 | 139 | 30 |  |
| CCC1=C[C@@H]2CN(CCc3c([nH]c4ccccc34)[C@@](C(=O)OC)(c3cc4c(cc3OC)N(C)[C@H]3[C@@](O)(CNC(C)=O)[C@H](OC(C)=O)[C@]5(CC)C=CCN6CC[C@]43[C@@H]65)C2)C1 | 444 | 22 |  |
| CCC1=C[C@@H]2CN(CCc3c([nH]c4ccccc34)[C@@](C(=O)OC)(c3cc4c(cc3OC)N(C)[C@H]3[C@@](O)(CNC(=O)c5ccc(F)cc5)[C@H](OC(C)=O)[C@]5(CC)C=CCN6CC[C@]43[C@@H]65)C2)C1 | 25 | 20 |  |
| CCC1=C[C@@H]2CN(CCc3c([nH]c4ccccc34)[C@@](C(=O)OC)(c3cc4c(cc3OC)N(C)[C@H]3[C@@](O)(CNC(=O)c5ccncc5)[C@H](OC(C)=O)[C@]5(CC)C=CCN6CC[C@]43[C@@H]65)C2)C1 | 24 | 27 |  |
| CCC1=C[C@@H]2CN(CCc3c([nH]c4ccccc34)[C@@](C(=O)OC)(c3cc4c(cc3OC)N(C)[C@H]3[C@@](O)(CNC(=O)C5CCC5)[C@H](OC(C)=O)[C@]5(CC)C=CCN6CC[C@]43[C@@H]65)C2)C1 | 68 | 34 |  |
| CCC1=C[C@@H]2CN(CCc3c([nH]c4ccccc34)[C@@](C(=O)OC)(c3cc4c(cc3OC)N(C)[C@H]3[C@@](O)(CNC(=O)C(C)(C)C)[C@H](OC(C)=O)[C@]5(CC)C=CCN6CC[C@]43[C@@H]65)C2)C1 | 61 | 95 |  |
